The source of these data is patent publication US7173134B2, “Selective RXR ligands” (SmithKline Beecham Corporation, priority 2001, dated 2007).

In assay [1] the target is T1, full length human RXRα (Homo sapiens, UniProt P19793).
T1 construct: These cells were transfected with full length human RXRα; expressed in transfected cells; host or cells: CV-1 (monkey kidney cell line)
T1 sequence (P19793 1-462): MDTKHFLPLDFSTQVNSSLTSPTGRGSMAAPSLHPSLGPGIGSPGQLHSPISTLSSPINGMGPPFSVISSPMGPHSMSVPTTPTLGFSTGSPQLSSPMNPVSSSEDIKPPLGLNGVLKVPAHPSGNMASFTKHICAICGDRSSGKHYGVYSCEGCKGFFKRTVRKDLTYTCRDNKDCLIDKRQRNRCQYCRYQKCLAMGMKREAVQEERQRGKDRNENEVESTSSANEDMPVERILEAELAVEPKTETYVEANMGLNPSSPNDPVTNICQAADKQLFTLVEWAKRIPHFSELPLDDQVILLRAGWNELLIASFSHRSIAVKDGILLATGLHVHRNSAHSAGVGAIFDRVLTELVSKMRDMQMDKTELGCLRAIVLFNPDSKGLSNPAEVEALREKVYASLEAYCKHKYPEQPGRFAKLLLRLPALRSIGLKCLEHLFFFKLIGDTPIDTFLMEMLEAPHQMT
In words: Transient transfection assay in CV-1 cells (CRBP II-tk-SPAP reporter). Format: cell-based. To be noted: CV-1 cells transfected with human RXRα and CRBP II-tk-SPAP reporter; 24 h incubation; SPAP activity. As for the experimental part: Transcriptional activity of the compounds was measured in a monkey kidney cell line (CV-1). These cells were transfected with full length human RXRα and the natural response element, cellular retinol binding protein type II in a reporter gene construct, (CRBP II-tk-SPAP), consisting of HSV tk promoter, and the secreted placental alkaline phosphatase reporter gene. CV-1 cells were plated at a density of 24,000 cells per well in high glucose DMEM supplemented with 10% charcoal/dextran-treated FBS. Transfection mixes contained 4 ng of receptor expression vector, 8 ng of reporter plasmid, 25 ng of β-galactosidase expression vector (used as an internal control), and 43 ng of carrier plasmid. Transfections were performed with Lipofectamine according to the manufacturer's instructions. Drug dilutions were prepared in phenol red-free DMEM/F-12 with 15 mM HEPES supplemented with 10% charcoal-stripped, delipidated calf serum. Cells were incubated for 24 h in the presence of drugs, after which the medium was sampled and assayed for SPAP activity.
B-galactosidase, which measures transfection efficiency activity, was determined by using 3.6 mM o-nitrophenyl-D-galactopyranoside in 0.1 M sodium phosphate pH 7.2 buffer containing 0.13% Triton X-100 as substrate. These plates were read on a Molecular Devices Vmax spectrophotometer, at a 405 nm endpoint reading. Data were reduced using RoboFit.
The results were expressed as percent of maximum or fold activation calculated by the following formulas: fold activation=(((SPAP−SPAPsubstrate blank avg.)/(β-gal−β-gal substrate blank avg.))−DMSO vehicle avg.)/DMSO vehicle avg, and % max.=(fold activation of unknown/positive control fold activation avg.)×100.

The target of assay [2] is T2, hRXRα (Homo sapiens, UniProt P19793).
T2 construct: polyhistidine (N); made in house; host or cells: E. coli
T2 sequence (P19793 227-458 limits assumed): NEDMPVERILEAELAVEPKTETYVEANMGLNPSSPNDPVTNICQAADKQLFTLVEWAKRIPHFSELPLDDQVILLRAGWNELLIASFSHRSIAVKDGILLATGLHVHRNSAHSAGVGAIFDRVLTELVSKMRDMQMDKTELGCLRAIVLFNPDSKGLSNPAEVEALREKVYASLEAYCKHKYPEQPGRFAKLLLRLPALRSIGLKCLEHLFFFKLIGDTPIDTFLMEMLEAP
In words: Scintillation Proximity Assay (SPA) binding assay, 9-cis[3H]-retinoic acid radioligand. To be noted: RXRα ligand binding domain on SPA beads; radioligand 9-cis[3H]-retinoic acid; read-out: Apparent pKi (converted). The procedure:
The compounds were tested for their ability to bind to hRXRα using a Scintillation Proximity Assay (SPA) as is known in the art. The RXRα ligand binding domain (LBD) was expressed in E. coli as an amino-terminal polyhistidine tagged fusion protein. The LBD was then labeled with biotin and immobilized on streptavidin-modified scintillation proximity beads.
9-cis[3H]-Retinoic acid (9-cis) was the radioligand used for the assay. To each well to be assayed was added the desired concentration of the previously prepared solution of 9-cis previously incubated with receptor-coated SPA bead slurry. The plates were incubated for at least 1 hour at room temperature and bound radioactivity for each well was determined in a Wallac 1450 Microbeta counter.
In this specification, pKi=−log of the concentration of the test compound required to achieve an apparent Ki value according to the equation Ki=IC50/1+[L]/Kd, where IC50=the concentration of test compound required to inhibit 50% of the specific binding of the radioligand, [L] is the concentration of the radioligand used, and Kd is the dissociation constant for the radioligand at the receptor.
For orientation: In a scintillation proximity assay essentially only radioactivity close to the scintillant gives light.

Some results are limits rather than exact numbers.

For orientation: EC50 means the concentration at which the effect is half-maximal. Higher therefore signals lower potency in that assay. `CC1(C)CCC(C)(C)c2cc(C3CCCc4oc(C(=O)O)cc43)ccc21` (stereo not drawn) [Example 13, 4-(5,5,8,8-Tetramethyl-5,6,7,8-tetrahydro-2-naphthalenyl)-4,5,6,7-tetrahydro-1-benzofuran-2-carboxylic acid] gave a concentration giving a half-maximal response (EC50) in assay [1] greater than 1 µM. Besides, the Ki in assay [2] was greater than 1 µM.

As to `CC1(C)CCC(C)(C)c2cc(Cc3csc(/C=C/C(=O)O)c3)ccc21` [Example 18, (2E)-3-{4-[(5,5,8,8-Tetramethyl-5,6,7,8-tetrahydro-2-naphthalenyl)methyl]-2-thienyl}-2-propenoic acid], the concentration giving a half-maximal response (EC50) in assay [1] was greater than 1 µM. The Ki in assay [2] is greater than 1 µM.

As for `COc1cc2c(cc1Cc1coc(/C=C/C(=O)O)c1)C(C)(C)CCC2(C)C` [Example 19, (2E)-3-{4-[(3-Methoxy-5,5,8,8-tetramethyl-5,6,7,8-tetrahydro-2-naphthalenyl)methyl]-2-furyl}-2-propenoic acid], in assay [1], the half-maximal effective concentration (EC50) was greater than 1 µM. In addition, in assay [2], the Ki was greater than 1 µM.
